The text below walks through data of US9597407B2, “Targeted antimicrobial moieties” (C3 Jian, Inc., priority 2009, dated 2017).

“Also recorded” adds a separate entry of the source.

The assay has as its system bacteria. The assay is described as follows: Binding of targeting peptides to microorganisms (Table 3). The following applies: microorganism bound by the targeting peptide; binding in aqueous buffers chosen by peptide solubility, preferably 1x PBS.
For the substance “PF-244 (HMRTISYLLAFAKFSLFIPPKQSLKRL; Peptide with targeting and/or antimicrobial activity)”, the “Target(s)” value was “S. epidermidis; also recorded: M. luteus; also recorded: P. aeruginosa; also recorded: A. baumannii”.

In the case of “PF-245 (MNDVKPVVQPKQTLKAFLVQLLSVRAGVYIKQNNQLPKTKG; Peptide with targeting and/or antimicrobial activity)”, the “Target(s)” value is “S. epidermidis; also recorded: M. luteus; also recorded: P. aeruginosa; also recorded: A. baumannii”.

As for “PF-246 (QPDEKAEFFDPSLDKVYRHPTFYHIPDGIEHM; Peptide with targeting and/or antimicrobial activity)”, the “Target(s)” value is on record as “S. mutans”. Regarding “PF-247 (ETAASETH; Peptide with targeting and/or antimicrobial activity)”, the “Target(s)” value is recorded as “S. epidermidis”. Under “PF-248 (ILSKLWFWMINSLGVVLLVSYWLLAKWGVA; Peptide with targeting and/or antimicrobial activity)” stands “S. mutans; also recorded: S. epidermidis; also recorded: M. luteus; also recorded: E. coli; also recorded: P. aeruginosa; also recorded: A. baumannii”. To “PF-253 (VRDDDS; Peptide with targeting and/or antimicrobial activity)” belongs “S. epidermidis; also recorded: M. luteus”. Regarding “PF-254 (FIYGVGFVPHFWLWKWLFSPWIAWPLMLLGYYIWFLT; Peptide with targeting and/or antimicrobial activity)”, the “Target(s)” value is on record as “S. epidermidis; also recorded: M. luteus; also recorded: P. aeruginosa; also recorded: A. baumannii”.

In the case of “PF-256 (EYFKQVYVKNEKIYSFWICKDLSPKEAAKRAEDILVKLK; Peptide with targeting and/or antimicrobial activity)”, the “Target(s)” value is recorded as “S. epidermidis”.

With “PF-259 (LPFSKIGRRVSYKKKDVLKYEQSKTVLNTAQLATV; Peptide with targeting and/or antimicrobial activity)”, the “Target(s)” value is recorded as “S. epidermidis; also recorded: P. aeruginosa; also recorded: A. baumannii”. Under “PF-262 (DPHSEIDVTRYCQLHHFTCQTMQISEREFHYLIETQ; Peptide with targeting and/or antimicrobial activity)” stands “S. mutans; also recorded: S. epidermidis; also recorded: M. luteus; also recorded: E. coli; also recorded: P. aeruginosa; also recorded: A. baumannii”; under “PF-263 (NLKKCPC; Peptide with targeting and/or antimicrobial activity)”, “S. epidermidis; also recorded: M. luteus; also recorded: A. baumannii”. To “PF-265 (MKTLFFPLFLIIFVLIIQALDQSYQKKIGISKPQKHPEFMQ; Peptide with targeting and/or antimicrobial activity)” belongs “S. epidermidis; also recorded: M. luteus; also recorded: A. baumannii”; to “PF-266 (DQEKKNKTEESTEQ; Peptide with targeting and/or antimicrobial activity)”, “S. mutans”. To “PF-267 (SDDKRTD; Peptide with targeting and/or antimicrobial activity)” belongs “M. luteus”; to “PF-268 (EVLLSDLRPDIFSET; Peptide with targeting and/or antimicrobial activity)”, “S. mutans”; to “PF-275 (LVSGVANTVKNTAHTVGNTAKHAGHVAADTTVKATKKQQVK; Peptide with targeting and/or antimicrobial activity)”, “S. mutans”. For the substance “PF-279 (SHIGFISISACLAVLLGIARLFVWTWVKFFA; Peptide with targeting and/or antimicrobial activity)”, the “Target(s)” value was “S. mutans; also recorded: S. epidermidis; also recorded: M. luteus; also recorded: E. coli; also recorded: P. aeruginosa; also recorded: A. baumannii”. Under “PF-281 (SYNTYYNKLIHGQRTPDGM; Peptide with targeting and/or antimicrobial activity)” stands “S. mutans; also recorded: E. coli”.

As for “PF-282 (QNNDTSAWCGSAHKNGNS; Peptide with targeting and/or antimicrobial activity)”, the “Target(s)” value was “S. mutans”. Regarding “PF-284 (MRYITYSLIPRLLSKKVIHQQ; Peptide with targeting and/or antimicrobial activity)”, the “Target(s)” value was “C. difficile”.

Turning to “PF-285 (VPAKLLRVIDEIPE; Peptide with targeting and/or antimicrobial activity)”, the “Target(s)” value is recorded as “S. mutans”.

For “PF-288 (IYQLLNIEYSEDD; Peptide with targeting and/or antimicrobial activity)”, the “Target(s)” value is listed as “S. mutans; also recorded: E. coli”.

“PF-291 (DVDGAIESEL; Peptide with targeting and/or antimicrobial activity)”: the “Target(s)” value is on record as “S. mutans; also recorded: E. coli”.

Turning to “PF-295 (NIQVYESECGNYIFKKSDESFLIDIFDKNGTH; Peptide with targeting and/or antimicrobial activity)”, the “Target(s)” value was “C. difficile”. Take “PF-299 (LATKLKYEKEHKKM; Peptide with targeting and/or antimicrobial activity)”: the “Target(s)” value was “B. subtilis”. Under “PF-300 (VKDVLLELFNKIIGA; Peptide with targeting and/or antimicrobial activity)” stands “B. subtilis; also recorded: C. difficile”; under “PF-304 (LVKDTSDIKNDLNNIEIVTSKNSNDIAKLKSVK; Peptide with targeting and/or antimicrobial activity)”, “S. mutans”. Under “PF-308 (QQYLILDRM; Peptide with targeting and/or antimicrobial activity)” stands “C. difficile”; under “PF-309 (GIPGMTAAPAEENEQEENADEE; Peptide with targeting and/or antimicrobial activity)”, “S. mutans; also recorded: E. coli”. Regarding “PF-311 (IDAVTKKKTTCMIRAPTKIPIAHTDN; Peptide with targeting and/or antimicrobial activity)”, the “Target(s)” value is recorded as “C. difficile”. Under “PF-314 (ECLKKAIKSKALNKAFKIDVPDEVYDNLLMELEEYEK; Peptide with targeting and/or antimicrobial activity)” stands “S. mutans”; under “PF-317 (LILVSDI; Peptide with targeting and/or antimicrobial activity)”, “S. mutans”; under “PF-320 (DSGYYALLENKEERVVWDGEVVANNIFNNLWIVVNKVKTG; Peptide with targeting and/or antimicrobial activity)”, “S. mutans; also recorded: E. coli”. Under “PF-323 (ARESIEKSHVPVDATIVGVVDSFEVFDE; Peptide with targeting and/or antimicrobial activity)” stands “S. mutans”. “PF-324 (HFSLL; Peptide with targeting and/or antimicrobial activity)”: the “Target(s)” value is reported as “C. difficile”. Under “PF-325 (LTIDEKLRNHR; Peptide with targeting and/or antimicrobial activity)” stands “S. mutans; also recorded: E. coli”.
